Format in all cases: physicochemical
Series [1] is described as follows: MEK resistance tests, 24 h, gloss loss of coating films. To be noted: coating film containing the named curing agent. The procedure: (§1) To verify properties of the product of the invention, APLUS101, APLUS102, HAA and TGIC are individually mixed with the polyester powder and additives. These curing agents are added in amounts of 2-8 wt % of the polyester powder coatings.
(§2) The coatings are tested in the form of films and the tests are carried out in the same conditions.

Series [2] is described as follows: Gloss of the polyester powder coating films. Particulars: polyester powder coating film containing the named curing agent (compositions of Table 1). The procedure:
as §1, §2

Series [3] in a line: QUV-A tests, 500 h, gloss retention of coating films. To be noted: coating film containing the named curing agent. How it is done: as §1, §2
Series [4] in a line: Neutral salt-spray tests, 300 h, on coating films. To be noted: corrosion of the coating film; cell text wraps over r6-r8 (Slight corrosion / No corrosion). How it is done:
as §1, §2

A short description of series [5]: Flow and leveling of the powder coatings. To be noted: polyester powder coating containing the named curing agent. How it is done: as §1, §2
The nature of series [6]: Heat resistance of coating films, 220° C., 15 min. To be noted: color difference compared with the color at 200° C., 10 min; less color differences indicate better properties. How it is done:
as §1, §2

For `O=C(CCCCC(=O)N(CCO)CCO)N(CCO)CCO` [HAA, N,N,N′,N′-Tetrakis (2-hydroxyethyl)adipamide], the “MEK resistance tests, 24 h, gloss loss (%)” value in series [1] was 8.16%. Also, the “Gloss of the films” value in series [2] is 84.5. In series [3], the “QUV-A tests, 500 h, gloss retention (%)” value was found to be 72.7%. The “Neutral salt-spray tests, 300 h” value in series [4] was “Slight”. Further, the “Flow and leveling (cm)” value in series [5] came out at 3.1 cm. In addition, the “Heat resistance, 220° C., 15 min” value in series [6] was determined as 1.15.
Take `O=c1n(CC2CO2)c(=O)n(CC2CO2)c(=O)n1CC1CO1` (stereo not drawn) [TGIC, 1,3,5-Triglycidyl isocyanurate]: the “MEK resistance tests, 24 h, gloss loss (%)” value in series [1] is 10.25%. In addition, in series [2], the “Gloss of the films” value was 87.6. Further, the “QUV-A tests, 500 h, gloss retention (%)” value in series [3] turned out to be 75.8%. The “Neutral salt-spray tests, 300 h” value in series [4] is “Slight”. Also, the “Flow and leveling (cm)” value in series [5] came out at 3.8 cm. Moreover, in series [6], the “Heat resistance, 220° C., 15 min” value came to 0.59.
